Here are results for eight compounds from ChEMBL document CHEMBL1201862, “PubChem BioAssay data set” (2004).

Common to all, as to experiment: growth of human tumour cells (NCI), 48 h
For test [1], the system named is HOP-92.
For test [2], the system named is OVCAR-8.
For test [3], the system named is 786-0.
For test [4], the system named is OVCAR-5.
In test [5] the test system is HOP-62.
Test [6] deals with TK-10.
For test [7], the system named is HCC 2998.
The test system of test [8] is SK-MEL-28.
Test [9] relates to SF-268.
In test [10] the test system is OVCAR-3.
Test [11] deals with SF-539.
Test [12] relates to SR.
The test system of test [13] is UACC-62.
The test system of test [14] is K562.
In test [15] the test system is M14.
The subject of test [16] is SNB-19.
The subject of test [17] is CCRF-CEM.
Test [18] concerns SK-OV-3.
The test system of test [19] is RXF 393.
The subject of test [20] is SNB-75.

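Values below derive from 48-hour exposures of cells grown in 96-well plates, with endpoints linearly interpolated between the two concentrations bracketing the appropriate inhibition level. GI50: concentration for 50% inhibition of growth.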 The source made the active and inactive calls. Rule as the data show it: active = GI50 up to about 1.1 µM and inactive = higher.

For `COC1CC(O)C(OC(=O)c2ccccc2)C(C)O1` (stereo not given), the GI50 in [1], in test [2], in test [3], in [4], in [5] and in [6] was > 100 µM (inactive) in each case. Also, the GI50 in [7], in test [8], in [9], in test [10], in test [11] and in test [12] was > 100 µM (inactive) in each case. The GI50 in test [13], in test [14], in test [15], in [16] and in test [17] was > 100 µM (inactive) throughout.

As to `Cc1nc(Cl)c(CBr)c(Cl)n1`, the GI50 in test [2] was 1.72 µM (inactive); in [3], 0.275 µM (active); in test [4], 2.05 µM (inactive); in test [18], 3.84 µM (inactive); in test [5], 1.91 µM (inactive); in [19], 2.11 µM (inactive). The GI50 was 2.08 µM (inactive) in [6]; 1 µM (active) in [20]; 3.64 µM (inactive) in test [7]; 1.49 µM (inactive) in [8]; 2.69 µM (inactive) in [9]; 0.596 µM (active) in [10]. Also, the GI50 in test [11] is 1.97 µM (inactive); in test [12], 0.0813 µM (active); in test [13] it was 1.38 µM (inactive); in test [14], 0.21 µM (active); in test [15], 0.427 µM (active); in test [16] it was 3.68 µM (inactive). In addition, the GI50 in [17] is 0.152 µM (active).

Turning to `CN(CCCCCl)P(=O)(OCc1ccc([N+](=O)[O-])o1)OCC1OC(n2ccc(N)nc2=O)C(O)C1O` (stereo not given), the GI50 in test [2] was 2.82 µM (inactive); in [3] it was 13.4 µM (inactive); in [4] it was 14.8 µM (inactive); in test [18], 4.17 µM (inactive); in test [5] it was 10.6 µM (inactive); in test [19] it was 6.21 µM (inactive). The GI50 was 37.7 µM (inactive) in test [6]; 0.571 µM (active) in [20]; 3.37 µM (inactive) in test [7]; 2.33 µM (inactive) in [8]; 7.6 µM (inactive) in test [9]; 2.1 µM (inactive) in test [10]. Also, the GI50 in [11] is 10.1 µM (inactive); in test [12] it was 5.87 µM (inactive); in test [13], 12.9 µM (inactive); in test [14] it was 2.99 µM (inactive); in test [15], 7.48 µM (inactive); in test [16], 3.21 µM (inactive).

Turning to `O=C(NC1CC1)c1c(O)[nH]c(=S)[nH]c1=O`, the GI50 in test [1], in [2], in [3], in test [4], in test [18] and in test [5] was > 100 µM (inactive) each time. The GI50 in [6], in test [20], in [8], in test [9], in test [10] and in test [11] was > 100 µM (inactive) each time. Further, the GI50 in [12], in test [13], in test [14], in test [15], in [16] and in [17] was > 100 µM (inactive) each time.

With `Cc1ccccc1/C=C/C(=O)c1ccccc1`, the GI50 is 20.5 µM (inactive) in test [1]; 25.2 µM (inactive) in [2]; 16.3 µM (inactive) in test [3]; 16.3 µM (inactive) in test [4]; 27.4 µM (inactive) in test [18]; 16.7 µM (inactive) in test [5]. Also, the GI50 in test [20] is 19.5 µM (inactive); in test [7] it was 18.4 µM (inactive); in [8], 18.7 µM (inactive); in test [9] it was 15.9 µM (inactive); in [10], 17.3 µM (inactive); in [11] it was 15.1 µM (inactive). Moreover, the GI50 is 29 µM (inactive) in test [12]; 19.9 µM (inactive) in test [13]; 20.6 µM (inactive) in test [14]; 16.1 µM (inactive) in [15]; 16.5 µM (inactive) in test [16]; 29.6 µM (inactive) in test [17].

As to `COc1cc(CCCOC(=O)/C=C/c2ccc(O)c(O)c2)cc(O)c1O`, the GI50 in test [2] is 70.8 µM (inactive); in test [3], 49 µM (inactive); in [4], > 100 µM (inactive); in [18] it was > 100 µM (inactive); in test [5], > 100 µM (inactive); in test [19], 73.6 µM (inactive). In addition, the GI50 is > 100 µM (inactive) in test [6]; 35.2 µM (inactive) in test [20]; > 100 µM (inactive) in test [7]; 58.3 µM (inactive) in test [8]; 25.2 µM (inactive) in test [9]; 42.1 µM (inactive) in test [10]. For the same compound, the GI50 in [11] was 28.4 µM (inactive); in test [12], 43.6 µM (inactive); in [13] it was 27.9 µM (inactive); in test [14] it was 33.2 µM (inactive); in [15], > 100 µM (inactive); in test [16], > 100 µM (inactive). The GI50 in [17] is 30.8 µM (inactive).

With `O=c1cc(-c2ccccc2)oc2cc(Oc3nnnn3-c3ccccc3)ccc12`, the GI50 in [1] is 2.37 µM (inactive); in test [2], 34.8 µM (inactive); in test [3] it was 38.7 µM (inactive); in test [18] it was 36 µM (inactive); in test [5], 93.8 µM (inactive); in test [6] it was 67 µM (inactive). The GI50 in test [7] is > 100 µM (inactive); in test [8] it was 79.1 µM (inactive); in test [9] it was 15 µM (inactive); in test [10], 55.6 µM (inactive); in [11] it was 22.4 µM (inactive); in test [12], 44.9 µM (inactive). Further, the GI50 in test [13] was > 100 µM (inactive); in test [14], 32.6 µM (inactive); in test [15], 36.5 µM (inactive); in test [16], 55.8 µM (inactive); in test [17], 69.2 µM (inactive).

For `CC(C)(C)C1=Nc2c(Br)cc(C(C)(C)C)cc2C(C(F)(F)F)(C(F)(F)F)O1`, the GI50 in [2] was 80.5 µM (inactive); in test [3], 35.3 µM (inactive); in [4], > 100 µM (inactive); in test [18], > 100 µM (inactive); in test [5], > 100 µM (inactive); in test [19] it was 22.5 µM (inactive). Besides, the GI50 in test [6] was > 100 µM (inactive); in test [20], > 100 µM (inactive); in [7], 29.9 µM (inactive); in test [8], 32.7 µM (inactive); in test [9], > 10 µM (inactive); in [10] it was 17 µM (inactive). The GI50 in test [11] was 37.8 µM (inactive); in test [12], 54 µM (inactive); in test [13], > 100 µM (inactive); in test [14] it was 39.4 µM (inactive); in test [15], > 100 µM (inactive); in test [16], 70.8 µM (inactive). Moreover, in [17], the GI50 is 32.7 µM (inactive).
